Here are results for 6 molecules from patent US11466028B2, “Fused 1,4-oxazepines as BET protein degraders” (THE REGENTS OF THE UNIVERSITY OF MICHIGAN, priority 2016, dated 2022).

The structures appear in SMILES notation. Read-outs that look alike come from different tables or passages of the source.

The subject of assay [1] is MOLM-13. The experiment in a line: CellTiter-Glo cell growth inhibition, MOLM-13. Conditions: Homo sapiens. The class given is cell-based. The method, then: (§1) Cell growth inhibitory activity of representative Compounds of the Disclosure was determined using the CellTiter-Glo® Luminescent Cell Viability Assay. Cells were seeded in 384-well white opaque cell culture plates at a density of 2,000 cells/well with serially diluted compounds and incubated at 37° C. in an atmosphere of 95% air and 5% CO2 for 4 days. Cell viability was determined using the CellTiter-Glo® Luminescent Cell Viability Assay Kit (Promega, Madison, Wis.) according to the manufacture's instruction. Briefly, a volume of CellTiter-Glo® Reagent equal to the volume of cell culture medium was added to each well, and then the plates were incubated at room temperature for 10-20 minutes. The luminescent signal was measured using a Tecan Infinite M1000 multimode microplate reader (Tecan, Morrisville, N.C.). The half maximal inhibitory concentration (IC50) was calculated using the GraphPad Prism 5 software (GraphPad Software, La Jolla, Calif.).
(§2) Cpd. Nos. 18 and 19 were tested in various leukemia cell lines using the CellTiter-Glo® Luminescent Cell Viability Assay as described in Example 35.

Assay [2] has as its system RS4;11. Nature of the assay: CellTiter-Glo cell growth inhibition, RS4;11. Particulars: Homo sapiens. Type of assay: cell-based. Here is the method: as §1, §2
For orientation: Cellular ATP, detected with luciferase, serves as a proxy for viable cell number.

Assay [3] concerns RS4;11 xenograph tumors. Nature of the assay: RS4;11 xenograft model. The class given is in vivo, SCID mice. Particulars: SCID mice. The method, then:
Cpd. Nos. 7 and 11 were dissolved in 10% PCP [10% PEG400 (Sigma), 3% Cremophor (Sigma), and 87% PBS (Gibco)]. The pH of the drug solutions were checked before use and adjusted with 0.5N NaOH to be between pH 6.5 and 8.0 for IV (intravenous) administration.
RS4;11 cells were maintained at 37° C., 95% air, 5% carbon dioxide in Improved MEM (Richter's Mod.) supplemented with 10% Fetal Bovine Serum, 100 units/ml of penicillin and 100 units/ml of streptomycin (GIBCO™, Invitrogen Corp.) and passaged twice weekly.
Tumor cells for xenografts were harvested with Trypsin (0.05%)-EDTA (0.53 mM) (GIBCO™, Invitrogen Corp.), growth medium added and cells placed on ice. Cells were washed once with 1×PBS (GIBCO™, Invitrogen Corp.) and re-suspended in PBS. After washing in PBS, cells were re-suspended in an ice cold mixture of 1:1 PBS and Matrigel (BD Biosciences, Invitrogen Corp.) for a final Matrigel protein concentration of 5 mg/ml. Cells at 5×10^6 cells in 0.1 ml were injected subcutaneously (s.c.) into the flank region of each mouse using a 25 gauge needle. All tumors were inoculated into SCID mice (strain:236) C.B-17 SCID, Charles River.
The size of tumors growing in the mice was measured in two dimensions using calipers. Tumor volume (mm^3)═(A×B^2)/2 where A and B are the tumor length and width (in mm), respectively. During treatment, tumor volume and body weight were measured three times a week. After the treatment was stopped, tumor volume and body weight was measured at least once a week.
Tumors were not allowed to exceed 10% of the animals total body weight. If an animal had two or more tumors the total weight of all tumors were not allowed to exceed 10% of the animal's total body weight. At the end of the experimental period or when tumor size approached 10% of the total body weight, the animal was euthanized.
Before treatment began, tumors were allowed to grow to 100-200 mm^3 in volume, at which point the blood vessel supplies to the tumor should have been well established. Mice with tumors within acceptable size range were randomized into treatment groups of seven mice. Cpd. Nos. 7 and 11 were given i.v. at 10 mg/kg at days 1,3, and 5 per week for two weeks. The Control group received vehicle alone. Cpd. Nos. 16, 18, 22 and 48 were given i.v. at 5 mg/kg at days 1, 3, and 5 per week for two weeks. The Control group received vehicle alone.
(§3) Representative Compounds of the Disclosure were tested in the RS4;11 and other xenograph models using similar techniques. […] No. 22 in the MDA-MB-231 TNBC model.

For assay [4], the system named is MDA-MB-231. Nature of the assay: CellTiter-Glo cell growth inhibition, MDA-MB-231. The class given is cell-based. Particulars: Homo sapiens, MDA-MB-231, 96 h, 4 days, Table 4. The method, then: as §1
The test system of assay [5] is MV4;11 xenograph. The experiment in a line: MV4;11 xenograph model. Conditions: FIG. 9. Type of assay: in vivo. The method, then: as §3
The target of assay [6] is T1, BRD2 (Homo sapiens, UniProt P25440).
T1 construct: endogenous in cells; host or cells: RS4;11 and MOLM-13 leukemia cells
The experiment in a line: Western blot, degradation of BRD2 in MOLM-13 cells. Type of assay: cell-based. Particulars: 3 h, as compared to Compound A, FIG. 2. The method, then: (§4) Cells were treated with compounds at the indicated concentrations for 2.5 h and 3 h, respectively, for RS4;11 (see FIG. 1) and MOLM-13 (see FIG. 2) cells. Compound A is ((S)-3-benzyl-6,9-dimethyl-2-((1-methyl-1H-pyrazol-4-yl)ethynyl)-4H,6H-thieno[2,3-e][1,2,4]triazolo[3,4-c][1,4]oxazepine). See Cpd. No. 85 of U.S. Appl. No. 62/295,271.
(§5) Collected cells were lysed in lysis buffer [1% CHAPS, 150 mM NaCl, 20 mM Tris-HCl, 1 mM. EDTA, 1 mM EGTA, and COMPLETE proteinase inhibitor (Roche)] for 30 minutes on ice. Protein concentrations were determined using the Bio-Rad Protein Assay Dye reagent. Whole tumor lysates (20 μg) were separated on a 4-20% Novex gels (Invitrogen). The separated proteins were transferred to a PVDF membrane (BIO-RAD) and the PVDF membrane was then blotted with 5% Blotting-Grade Blocker (BIO-RAD) for 1 hour at room temperature. The primary antibodies used were BRD4 rabbit polyclonal antibody [Bethyl Laboratories, Inc, cat #A301] and BRD2 antibody.
(§6) The BIO-RAD Clarity Western ECL Substrates (BIO-RAD) and HyBlot CL film (Denville) were used for signal development and detection using a SRX-101A tabletop processor (Konica Minolta).

Assay [7] has as its system AML3. Nature of the assay: CellTiter-Glo cell viability, AML3 leukemia cell line. Type of assay: cell-based. Particulars: Table 5. Here is the method: as §1, §2
The subject of assay [8] is KG1. Nature of the assay: CellTiter-Glo cell viability, KG1 leukemia cell line. Type of assay: cell-based. Particulars: Homo sapiens, KG-1, Table 5. Here is the method: as §1, §2
The target of assay [9] is T1, BRD2. Nature of the assay: Western blot, degradation of BRD2 in RS4;11 cells. The class given is cell-based. Conditions: 2.5 h, as compared to Compound A, FIG. 1. Here is the method:
as §4, §5, §6
Background: A western blot detects proteins with antibodies after separation by electrophoresis.

Assay [10] deals with MonoMac6. Nature of the assay: CellTiter-Glo cell viability, MonoMac6 leukemia cell line. Type of assay: cell-based. Conditions: Homo sapiens, MONO-MAC-6, Table 5. Here is the method: as §1, §2
The target in assay [11] is T2, BRD4 (Homo sapiens, UniProt O60885).
T2 construct: Collected cells were lysed in lysis buffer; endogenous in cells; host or cells: RS4;11 and MOLM-13 leukemia cells
Nature of the assay: Western blot, degradation of BRD4 in RS4;11 cells. The class given is cell-based. Particulars: 2.5 h, as compared to Compound A, FIG. 1. Here is the method: as §4, §5, §6

In assay [12] the test system is HL60. The experiment in a line: CellTiter-Glo cell viability, HL60 leukemia cell line. The class given is cell-based. Conditions: Homo sapiens, HL-60, Table 5. The method, then: as §1, §2
Assay [13] relates to MOLM16. Nature of the assay: CellTiter-Glo cell viability, MOLM16 leukemia cell line. Type of assay: cell-based. Conditions: Table 5. Here is the method:
as §1, §2

Assay [14] deals with MV4; 11. Nature of the assay: CellTiter-Glo cell viability, MV4;11 leukemia cell line. Type of assay: cell-based. Particulars: Homo sapiens, Table 5. The method, then: as §1, §2
Assay [15] addresses T2, BRD4. Nature of the assay: Western blot, degradation of BRD4 in MOLM-13 cells. Type of assay: cell-based. Particulars: 3 h, as compared to Compound A, FIG. 2. Here is the method: as §4, §5, §6
In assay [16] the test system is AML5. The experiment in a line: CellTiter-Glo cell viability, AML5 leukemia cell line. Type of assay: cell-based. Conditions: Table 5. Here is the method:
as §1, §2

[17] abbreviates: MOLM-13, 96 h, 4 days, Table 4, read-out: MOLM-13 IC50.
Where [18] appears, read: RS4-11, 96 h, 4 days, Table 4, read-out: RS-4, 11 IC50.
[19] abbreviates: i.v. 5 mg/kg at days 1, 3, 5 per week for two weeks, FIG. 4.

T1 sequence (P25440 whole entry): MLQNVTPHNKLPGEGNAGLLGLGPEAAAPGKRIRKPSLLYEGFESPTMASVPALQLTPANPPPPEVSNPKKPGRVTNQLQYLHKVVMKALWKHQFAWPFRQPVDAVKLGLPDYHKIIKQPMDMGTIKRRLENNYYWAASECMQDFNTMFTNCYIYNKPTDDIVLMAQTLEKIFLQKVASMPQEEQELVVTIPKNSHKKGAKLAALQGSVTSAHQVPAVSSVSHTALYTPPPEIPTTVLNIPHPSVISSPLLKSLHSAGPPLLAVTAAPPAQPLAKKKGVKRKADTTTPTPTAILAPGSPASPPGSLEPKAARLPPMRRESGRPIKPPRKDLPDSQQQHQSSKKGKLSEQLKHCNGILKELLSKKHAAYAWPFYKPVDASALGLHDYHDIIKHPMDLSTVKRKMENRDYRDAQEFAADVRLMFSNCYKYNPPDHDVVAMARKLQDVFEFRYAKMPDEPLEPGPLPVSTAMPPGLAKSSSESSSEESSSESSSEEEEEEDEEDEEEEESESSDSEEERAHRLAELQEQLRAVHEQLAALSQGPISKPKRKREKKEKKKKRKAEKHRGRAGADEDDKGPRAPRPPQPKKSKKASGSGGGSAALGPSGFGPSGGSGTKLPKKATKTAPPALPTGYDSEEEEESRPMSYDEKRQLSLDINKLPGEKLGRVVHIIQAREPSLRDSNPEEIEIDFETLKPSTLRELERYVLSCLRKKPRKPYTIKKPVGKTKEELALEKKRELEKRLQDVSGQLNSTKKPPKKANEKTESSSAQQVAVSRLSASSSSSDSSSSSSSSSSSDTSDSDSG

Usually IC50 stands for the point on the concentration scale where inhibition reaches its midpoint. For `Cc1nnc2n1-c1sc(C#Cc3cnn(CCCCCc4cccc5c4CN(C4CCC(=O)NC4=O)C5=O)c3)c(Cc3ccccc3)c1COC2` (centres unmarked) [Cpd. No. 48, 3-(4-(5-(4-((3-benzyl-9-methyl-4H,6H-thieno[2,3-e][1,2,4]triazolo[3,4-c][1,4]oxazepin-2-yl)ethynyl)-1H-pyrazol-1-yl)pentyl)-1-oxoisoindolin-2-yl) piperidine-2,6-dione], the values for the IC50 in assay [1] (setting [17]), in assay [2] (setting [18]) and in [4] were 1.7 nM, 0.22 nM and 0.33 nM, respectively. In addition, the “tumor regression in RS4;11 xenograph tumors” value in [3] (setting [19]) is given as “induce tumor regression”.
Consider `Cc1nnc2n1-c1sc(C#Cc3cnn(CCCCNc4cccc5c4CN(C4CCC(=O)NC4=O)C5=O)c3)c(Cc3ccccc3)c1CO[C@H]2C` (stereo partly drawn) [Cpd. No. 11, 3-(4-((4-(4-(((S)-3-benzyl-6,9-dimethyl-4H,6H-thieno[2,3-e][1,2,4]triazolo[3,4-c][1,4]oxazepin-2-yl)ethynyl)-1H-pyrazol-1-yl)butyl)amino)-1-oxoisoindolin-2-yl) piperidine-2,6-dione], for which the IC50 in assay [1] (setting [17]) is 0.4 nM; in assay [4], 2.3 nM. Further, the “tumor regression in RS4;11 xenograph tumors” value in [3] (i.v. 10 mg/kg at days 1, 3, 5 per week for two weeks, FIG. 3) was “induce tumor regression”.
Regarding `Cc1nnc2n1-c1sc(C#Cc3cnn(CCCCNc4cccc5c4C(=O)N(C4CCC(=O)NC4=O)C5=O)c3)c(Cc3ccccc3)c1COC2` (centres unmarked) [Cpd. No. 16, 4-((4-(4-((3-benzyl-9-methyl-4H,6H-thieno[2,3-e][1,2,4]triazolo[3,4-c][1,4]oxazepin-2-yl)ethynyl)-1H-pyrazol-1-yl)butyl)amino)-2-(2,6-dioxopiperidin-3-yl) isoindoline-1,3-dione], the IC50 in [1] (setting [17]) was determined as 0.9 nM; in [2] (setting [18]) it was 0.1 nM; in [4] it was 0.29 nM. In addition, the “tumor regression in RS4;11 xenograph tumors” value in assay [3] (setting [19]) is listed as “induce tumor regression”.
Consider `Cc1nnc2n1-c1sc(C#Cc3cnn(CCCCNc4cccc5c4CN(C4CCC(=O)NC4=O)C5=O)c3)c(Cc3ccccc3)c1COC2` (centres unmarked) [Cpd. No. 17, 3-(4-((4-(4-((3-benzyl-9-methyl-4H,6H-thieno[2,3-e][1,2,4]triazolo[3,4-c][1,4]oxazepin-2-yl)ethynyl)-1H-pyrazol-1-yl)butyl)amino)-1-oxoisoindolin-2-yl) piperidine-2,6-dione], for which the IC50 in [1] (setting [17]) is 0.5 nM; in [2] (setting [18]), 0.06 nM; in [4], 0.21 nM. For the same molecule, the “tumor regression in the MV4;11 xenograph model” value in assay [5] was “induce tumor regression”.
`Cc1nnc2n1-c1sc(C#Cc3cnn(CCCCCc4cccc5c4CN(C4CCC(=O)NC4=O)C5=O)c3)c(Cc3ccccc3)c1CO[C@H]2C` (stereo partly drawn) [Cpd. No. 19, 3-(4-(5-(4-(((S)-3-benzyl-6,9-dimethyl-4H,6H-thieno[2,3-e][1,2,4]triazolo[3,4-c][1,4]oxazepin-2-yl)ethynyl)-1H-pyrazol-1-yl)pentyl)-1-oxoisoindolin-2-yl) piperidine-2,6-dione]: the “degradation of BRD2 protein (Western blot)” value in [6] and in assay [9] was “induce degradation” throughout. The IC50 is 2.44 ± 0.22 nM in assay [7]; 2.7 nM in assay [1] (setting [17]); 7.6 nM in [1] (MOLM-13, Table 5, read-out: IC50 (nM) MOLM13); 3.99 ± 0.18 nM in assay [8]; 0.06 nM in [2] (setting [18]); 0.8 ± 0.1 nM in assay [2] (RS4-11, Table 5, read-out: IC50 (nM) RS4, 11). For the same molecule, the IC50 in assay [10] came out at 1.8 ± 0.3 nM; in [12] it was 0.97 ± 0.08 nM; in assay [13], 0.15 ± 0.06 nM; in [14], 0.46 ± 0.1 nM; in [16] it was 0.84 ± 0.14 nM; in assay [4] it was 12 nM. The “degradation of BRD4 protein (Western blot)” value in assay [11] and in [15] was “induce degradation” in each case.
In the case of `Cc1nnc2n1-c1sc(C#Cc3cnn(CCCCOc4cccc5c4CN(C4CCC(=O)NC4=O)C5=O)c3)c(Cc3ccccc3)c1COC2` (centres unmarked) [compound 65, 3-(4-(4-(4-((3-benzyl-9-methyl-4H,6H-thieno[2,3-e][1,2,4]triazolo[3,4-c][1,4]oxazepin-2-yl)ethynyl)-1H-pyrazol-1-yl)butoxy)-1-oxoisoindolin-2-yl)piperidine-2,6-dione], the “tumor regression in the MV4;11 xenograph model” value in assay [5] was “induce tumor regression”.
